# Paper PMC3694096, “Development of Novel In Vivo Chemical Probes to Address CNS Protein Kinase Involvement in Synaptic Dysfunction” (PLoS ONE, 2013)
# pIC50: −log10 of the molar value.
# Experiments:
# DAPK1 = molecular target: T1, DAPK1 (Homo sapiens, UniProt P53355); assay: Kinome profiler screen; type: biochemical; conditions: at 20,000 nM inhibitor; kinase activity remaining
# T1 construct: purchased Millipore KinaseProfiler
# Fms(Y969C) = molecular target: T2, Fms(Y969C) (Homo sapiens, UniProt P07333, Y969C); assay: Kinome profiler screen; type: biochemical; conditions: at 20,000 nM inhibitor; kinase activity remaining
# T2 construct: purchased Millipore KinaseProfiler
# Met = molecular target: T3, Met (Homo sapiens, UniProt P08581); assay: Kinome profiler screen; type: biochemical; conditions: at 20,000 nM inhibitor; kinase activity remaining
# T3 construct: purchased Millipore KinaseProfiler
# PIP4K2α = molecular target: T4, PIP4K2α (Homo sapiens, UniProt P48426); assay: Kinome profiler screen; type: biochemical; conditions: at 20,000 nM inhibitor; kinase activity remaining
# T4 construct: purchased Millipore KinaseProfiler
# ZAP-70 = molecular target: T5, ZAP-70 (Homo sapiens, UniProt P43403); assay: Kinome profiler screen; type: biochemical; conditions: at 20,000 nM inhibitor; kinase activity remaining
# T5 construct: purchased Millipore KinaseProfiler
# T5 sequence (P43403 whole entry): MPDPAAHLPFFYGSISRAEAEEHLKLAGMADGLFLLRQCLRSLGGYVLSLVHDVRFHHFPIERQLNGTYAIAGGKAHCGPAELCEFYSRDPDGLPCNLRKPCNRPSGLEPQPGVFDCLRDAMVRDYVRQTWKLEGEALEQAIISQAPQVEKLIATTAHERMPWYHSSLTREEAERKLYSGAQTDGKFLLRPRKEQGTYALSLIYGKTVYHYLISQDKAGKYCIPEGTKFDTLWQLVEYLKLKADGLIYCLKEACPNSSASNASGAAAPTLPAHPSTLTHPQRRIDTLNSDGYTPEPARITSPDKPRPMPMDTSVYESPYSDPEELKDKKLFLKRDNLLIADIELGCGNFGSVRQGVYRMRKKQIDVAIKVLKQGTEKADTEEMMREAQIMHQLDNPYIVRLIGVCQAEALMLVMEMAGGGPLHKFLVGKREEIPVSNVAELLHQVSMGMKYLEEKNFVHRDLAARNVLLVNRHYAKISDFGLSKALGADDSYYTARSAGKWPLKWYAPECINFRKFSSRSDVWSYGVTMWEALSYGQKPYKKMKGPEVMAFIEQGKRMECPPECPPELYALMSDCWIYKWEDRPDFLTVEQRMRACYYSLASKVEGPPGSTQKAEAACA
# [1] = Dose escalation adverse event screen (SHIRPA based); type: in vivo; conditions: highest dose at which no adverse events are observed in dose escalation studies, mice
# Text: Novel compounds were screened in vivo using a standard dose escalation screen in mice coupled with clinical observation and testing based on the SHIRPA mouse phenotype assay paradigm. To obtain insight into the potential for off-target activity with the largest known family of small molecule drug targets, G-protein coupled receptors (GPCRs), a cell-based functional screen of the final title compounds was done. The Millipore® GPCR Profiler screen employs the ChemiScreen GPCR stable cell line technology used for real-time calcium flux FLIPR assays on a panel of 158 GPCRs to detect both antagonists and agonists. The NCBI Entrez identifier for each GPCR is provided at the vendor site (www.millipore.com). Follow-up validation of any initial hits as being true positives or negatives was done as described above for protein kinases by testing the concentration dependence of any cellular effects. No validated hits were detected.
# [2] = molecular target: T6, PI3 Kinase (p110α/p65α)(m) (Mus musculus, UniProt P42337); assay: Kinome profiler screen; type: biochemical; conditions: at 20,000 nM inhibitor; kinase activity remaining
# T6 construct: purchased Millipore KinaseProfiler
# CDK2/cyclinA = molecular target: T7, CDK2/cyclinA (Homo sapiens, UniProt P24941); assay: Kinome profiler screen; type: biochemical; conditions: at 20,000 nM inhibitor; kinase activity remaining
# T7 construct: purchased Millipore KinaseProfiler
# PAK6 = molecular target: T8, PAK6 (Homo sapiens, UniProt Q9NQU5); assay: Kinome profiler screen; type: biochemical; conditions: at 20,000 nM inhibitor; kinase activity remaining
# T8 construct: purchased Millipore KinaseProfiler
# Blk(m) = molecular target: T9, Blk(m) (Mus musculus, UniProt P16277); assay: Kinome profiler screen; type: biochemical; conditions: at 20,000 nM inhibitor; kinase activity remaining
# T9 construct: purchased Millipore KinaseProfiler
# WNK3 = molecular target: T10, WNK3 (Homo sapiens, UniProt Q9BYP7); assay: Kinome profiler screen; type: biochemical; conditions: at 20,000 nM inhibitor; kinase activity remaining
# T10 construct: purchased Millipore KinaseProfiler
# Lyn(m) = molecular target: T11, Lyn(m) (Mus musculus, UniProt P25911); assay: Kinome profiler screen; type: biochemical; conditions: at 20,000 nM inhibitor; kinase activity remaining
# T11 construct: purchased Millipore KinaseProfiler
# T11 sequence (P25911 2-512 limits assumed): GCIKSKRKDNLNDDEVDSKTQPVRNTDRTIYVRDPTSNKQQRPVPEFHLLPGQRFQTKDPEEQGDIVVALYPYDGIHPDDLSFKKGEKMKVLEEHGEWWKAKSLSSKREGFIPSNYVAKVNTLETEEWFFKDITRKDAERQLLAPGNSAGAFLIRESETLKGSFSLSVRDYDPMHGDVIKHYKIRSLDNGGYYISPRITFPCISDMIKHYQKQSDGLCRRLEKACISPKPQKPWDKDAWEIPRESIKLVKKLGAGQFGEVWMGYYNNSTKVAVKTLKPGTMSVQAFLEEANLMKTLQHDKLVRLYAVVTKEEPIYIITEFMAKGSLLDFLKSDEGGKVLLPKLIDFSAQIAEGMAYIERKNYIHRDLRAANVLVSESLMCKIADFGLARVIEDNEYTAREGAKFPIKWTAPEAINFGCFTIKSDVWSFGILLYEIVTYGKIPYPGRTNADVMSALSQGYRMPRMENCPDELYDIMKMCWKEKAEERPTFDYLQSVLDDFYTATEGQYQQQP
# NEK7 = molecular target: T12, NEK7 (Homo sapiens, UniProt Q8TDX7); assay: Kinome profiler screen; type: biochemical; conditions: at 20,000 nM inhibitor; kinase activity remaining
# T12 construct: purchased Millipore KinaseProfiler
# T12 sequence (Q8TDX7 whole entry): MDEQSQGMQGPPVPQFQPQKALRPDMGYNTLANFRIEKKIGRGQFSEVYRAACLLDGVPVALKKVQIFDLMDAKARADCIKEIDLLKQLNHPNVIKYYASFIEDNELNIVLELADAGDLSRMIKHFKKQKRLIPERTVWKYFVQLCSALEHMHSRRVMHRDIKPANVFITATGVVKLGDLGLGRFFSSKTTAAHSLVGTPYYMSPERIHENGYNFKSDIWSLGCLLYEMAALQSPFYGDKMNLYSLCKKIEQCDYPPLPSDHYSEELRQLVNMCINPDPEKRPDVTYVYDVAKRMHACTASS
# MAPK1 = molecular target: T13, MAPK1 (Homo sapiens, UniProt P27361); assay: Kinome profiler screen; type: biochemical; conditions: at 20,000 nM inhibitor; kinase activity remaining
# T13 construct: purchased Millipore KinaseProfiler
# T13 sequence (P27361 whole entry): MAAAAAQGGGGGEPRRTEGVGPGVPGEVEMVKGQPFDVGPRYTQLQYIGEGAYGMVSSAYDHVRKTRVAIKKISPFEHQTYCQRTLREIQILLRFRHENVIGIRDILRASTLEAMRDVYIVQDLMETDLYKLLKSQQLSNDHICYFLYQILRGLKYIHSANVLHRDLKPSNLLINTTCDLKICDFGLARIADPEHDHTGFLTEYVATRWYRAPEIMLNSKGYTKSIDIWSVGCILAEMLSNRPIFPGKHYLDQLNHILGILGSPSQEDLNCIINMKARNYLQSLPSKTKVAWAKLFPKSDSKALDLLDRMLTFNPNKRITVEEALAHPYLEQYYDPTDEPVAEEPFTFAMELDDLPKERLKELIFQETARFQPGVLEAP
# PhKγ2 = molecular target: T14, PhKγ2 (Homo sapiens, UniProt P15735); assay: Kinome profiler screen; type: biochemical; conditions: at 20,000 nM inhibitor; kinase activity remaining
# T14 construct: purchased Millipore KinaseProfiler
# T14 sequence (P15735 whole entry): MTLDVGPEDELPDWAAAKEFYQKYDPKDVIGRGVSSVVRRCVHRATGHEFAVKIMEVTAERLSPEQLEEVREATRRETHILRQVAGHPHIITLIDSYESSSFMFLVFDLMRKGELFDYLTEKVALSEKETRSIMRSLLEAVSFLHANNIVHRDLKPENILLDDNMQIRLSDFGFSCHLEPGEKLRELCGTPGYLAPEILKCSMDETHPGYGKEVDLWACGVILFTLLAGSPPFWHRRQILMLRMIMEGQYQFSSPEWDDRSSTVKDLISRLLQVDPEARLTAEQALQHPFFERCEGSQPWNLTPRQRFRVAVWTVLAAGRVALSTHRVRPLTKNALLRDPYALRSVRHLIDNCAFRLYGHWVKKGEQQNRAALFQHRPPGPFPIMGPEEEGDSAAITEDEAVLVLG
# Met(Y1248D) = molecular target: T15, Met(Y1248D) (Homo sapiens, UniProt P08581, Y1230D); assay: Kinome profiler screen; type: biochemical; conditions: at 20,000 nM inhibitor; kinase activity remaining
# T15 construct: purchased Millipore KinaseProfiler
# [3] = molecular target: T16, PI3 Kinase (p110 β/p85β)(m) (Mus musculus, UniProt Q8BTI9); assay: Kinome profiler screen; type: biochemical; conditions: at 20,000 nM inhibitor; kinase activity remaining
# T16 construct: purchased Millipore KinaseProfiler
# Fes = molecular target: T17, Fes (Homo sapiens, UniProt P07332); assay: Kinome profiler screen; type: biochemical; conditions: at 20,000 nM inhibitor; kinase activity remaining
# T17 construct: purchased Millipore KinaseProfiler
# CaMKIIγ = molecular target: T18, CaMKIIγ (Homo sapiens, UniProt Q13555); assay: Kinome profiler screen; type: biochemical; conditions: at 20,000 nM inhibitor; kinase activity remaining
# T18 construct: purchased Millipore KinaseProfiler
# Abl (H396P) = molecular target: T19, Abl (H396P) (Homo sapiens, UniProt P00519, H396P); assay: Kinome profiler screen; type: biochemical; conditions: at 20,000 nM inhibitor; kinase activity remaining
# T19 construct: purchased Millipore KinaseProfiler
# Rsk2 = molecular target: T20, Rsk2 (Homo sapiens, UniProt P51812); assay: Kinome profiler screen; type: biochemical; conditions: at 20,000 nM inhibitor; kinase activity remaining
# T20 construct: purchased Millipore KinaseProfiler
# Syk = molecular target: T21, Syk (Homo sapiens, UniProt P43405); assay: Kinome profiler screen; type: biochemical; conditions: at 20,000 nM inhibitor; kinase activity remaining
# T21 construct: purchased Millipore KinaseProfiler
# PKCα = molecular target: T22, PKCα (Homo sapiens, UniProt P17252); assay: Kinome profiler screen; type: biochemical; conditions: at 20,000 nM inhibitor; kinase activity remaining
# T22 construct: purchased Millipore KinaseProfiler
# Lck activated = molecular target: T23, Lck activated (Homo sapiens, UniProt P06239); assay: Kinome profiler screen; type: biochemical; conditions: at 20,000 nM inhibitor; kinase activity remaining
# T23 construct: purchased Millipore KinaseProfiler
# PKCβII = molecular target: T24, PKCβII (Homo sapiens, UniProt P05771); assay: Kinome profiler screen; type: biochemical; conditions: at 20,000 nM inhibitor; kinase activity remaining
# T24 construct: purchased Millipore KinaseProfiler
# NEK2 = molecular target: T25, NEK2 (Homo sapiens, UniProt P51955); assay: Kinome profiler screen; type: biochemical; conditions: at 20,000 nM inhibitor; kinase activity remaining
# T25 construct: purchased Millipore KinaseProfiler
# SGK2 = molecular target: T26, SGK2 (Homo sapiens, UniProt Q9HBY8); assay: Kinome profiler screen; type: biochemical; conditions: at 20,000 nM inhibitor; kinase activity remaining
# T26 construct: purchased Millipore KinaseProfiler
# DMPK = molecular target: T27, DMPK (Homo sapiens, UniProt Q09013); assay: Kinome profiler screen; type: biochemical; conditions: at 20,000 nM inhibitor; kinase activity remaining
# T27 construct: purchased Millipore KinaseProfiler
# T27 sequence (Q09013 whole entry): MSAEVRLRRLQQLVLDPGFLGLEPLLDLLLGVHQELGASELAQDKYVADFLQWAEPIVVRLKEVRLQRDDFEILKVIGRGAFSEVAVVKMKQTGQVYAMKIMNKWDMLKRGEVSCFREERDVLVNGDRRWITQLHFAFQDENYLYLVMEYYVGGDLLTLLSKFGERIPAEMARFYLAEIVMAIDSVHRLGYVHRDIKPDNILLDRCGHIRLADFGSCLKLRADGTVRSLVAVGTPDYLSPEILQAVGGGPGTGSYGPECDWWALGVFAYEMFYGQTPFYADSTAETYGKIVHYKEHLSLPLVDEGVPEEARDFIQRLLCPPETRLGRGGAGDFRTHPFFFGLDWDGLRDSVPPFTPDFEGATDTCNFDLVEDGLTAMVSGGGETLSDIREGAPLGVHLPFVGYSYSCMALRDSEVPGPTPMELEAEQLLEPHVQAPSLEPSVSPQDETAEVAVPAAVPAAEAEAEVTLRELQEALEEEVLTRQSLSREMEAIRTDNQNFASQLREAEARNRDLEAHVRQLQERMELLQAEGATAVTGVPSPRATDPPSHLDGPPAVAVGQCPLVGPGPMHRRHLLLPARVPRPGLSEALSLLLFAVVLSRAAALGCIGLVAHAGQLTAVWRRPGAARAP
# HIPK2 = molecular target: T28, HIPK2 (Homo sapiens, UniProt Q9H2X6); assay: Kinome profiler screen; type: biochemical; conditions: at 20,000 nM inhibitor; kinase activity remaining
# T28 construct: purchased Millipore KinaseProfiler
# PDGFRα = molecular target: T29, PDGFRα (Homo sapiens, UniProt P16234); assay: Kinome profiler screen; type: biochemical; conditions: at 20,000 nM inhibitor; kinase activity remaining
# T29 construct: purchased Millipore KinaseProfiler
# Plk1 = molecular target: T30, Plk1 (Homo sapiens, UniProt P53350); assay: Kinome profiler screen; type: biochemical; conditions: at 20,000 nM inhibitor; kinase activity remaining
# T30 construct: purchased Millipore KinaseProfiler
# Met(M1268T) = molecular target: T31, Met(M1268T) (Homo sapiens, UniProt P08581, M1250T); assay: Kinome profiler screen; type: biochemical; conditions: at 20,000 nM inhibitor; kinase activity remaining
# T31 construct: purchased Millipore KinaseProfiler
# cKit(V654A) = molecular target: T32, cKit(V654A) (Homo sapiens, UniProt P10721, V654A); assay: Kinome profiler screen; type: biochemical; conditions: at 20,000 nM inhibitor; kinase activity remaining
# T32 construct: purchased Millipore KinaseProfiler
# Rsk1 = molecular target: T33, Rsk1 (Homo sapiens, UniProt Q15418); assay: Kinome profiler screen; type: biochemical; conditions: at 20,000 nM inhibitor; kinase activity remaining
# T33 construct: purchased Millipore KinaseProfiler
# Lyn = molecular target: T34, Lyn (Homo sapiens, UniProt P07948); assay: Kinome profiler screen; type: biochemical; conditions: at 20,000 nM inhibitor; kinase activity remaining
# T34 construct: purchased Millipore KinaseProfiler
# Flt4 = molecular target: T35, Flt4 (Homo sapiens, UniProt P35916); assay: Kinome profiler screen; type: biochemical; conditions: for activity at 20 µM: at 20,000 nM inhibitor, kinase activity remaining
# T35 construct: purchased Millipore
# T35 sequence (P35916 25-1363): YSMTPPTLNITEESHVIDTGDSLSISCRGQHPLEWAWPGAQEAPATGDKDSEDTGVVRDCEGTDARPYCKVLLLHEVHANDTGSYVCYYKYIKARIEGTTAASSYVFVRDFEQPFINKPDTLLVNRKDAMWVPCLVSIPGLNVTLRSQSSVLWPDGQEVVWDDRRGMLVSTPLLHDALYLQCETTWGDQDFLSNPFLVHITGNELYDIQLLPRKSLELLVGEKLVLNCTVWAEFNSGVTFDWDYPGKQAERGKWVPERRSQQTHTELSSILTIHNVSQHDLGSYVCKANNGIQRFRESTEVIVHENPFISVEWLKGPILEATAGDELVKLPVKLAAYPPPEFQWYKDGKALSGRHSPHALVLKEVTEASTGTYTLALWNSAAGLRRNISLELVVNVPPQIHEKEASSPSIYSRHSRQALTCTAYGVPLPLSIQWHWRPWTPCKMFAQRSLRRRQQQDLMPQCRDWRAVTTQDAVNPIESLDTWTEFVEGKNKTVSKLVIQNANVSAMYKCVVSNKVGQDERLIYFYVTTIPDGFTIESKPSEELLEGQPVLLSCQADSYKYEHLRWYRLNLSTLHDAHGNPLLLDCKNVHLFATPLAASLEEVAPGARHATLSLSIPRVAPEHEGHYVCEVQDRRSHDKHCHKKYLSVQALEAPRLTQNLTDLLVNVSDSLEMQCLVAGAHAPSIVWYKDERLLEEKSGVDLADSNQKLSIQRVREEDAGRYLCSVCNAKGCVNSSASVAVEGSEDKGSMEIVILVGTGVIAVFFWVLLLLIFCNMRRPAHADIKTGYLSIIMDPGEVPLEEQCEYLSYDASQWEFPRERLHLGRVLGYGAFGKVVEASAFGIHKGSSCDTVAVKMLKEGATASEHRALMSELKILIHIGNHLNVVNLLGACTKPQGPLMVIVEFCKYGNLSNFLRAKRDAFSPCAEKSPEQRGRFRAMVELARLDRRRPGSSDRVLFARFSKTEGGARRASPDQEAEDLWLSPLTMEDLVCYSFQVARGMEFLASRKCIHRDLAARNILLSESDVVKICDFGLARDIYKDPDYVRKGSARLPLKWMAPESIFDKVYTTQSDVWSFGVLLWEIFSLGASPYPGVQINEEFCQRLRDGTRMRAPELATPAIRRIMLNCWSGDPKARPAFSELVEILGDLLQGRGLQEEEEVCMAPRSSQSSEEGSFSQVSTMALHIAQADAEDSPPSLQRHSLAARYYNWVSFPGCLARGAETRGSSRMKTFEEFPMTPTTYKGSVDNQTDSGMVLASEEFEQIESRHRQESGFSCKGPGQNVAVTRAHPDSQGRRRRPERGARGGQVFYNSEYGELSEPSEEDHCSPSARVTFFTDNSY
# [4] = system: CA3-CA1 long-term potentiation; assay: LTP in Aβ42-treated hippocampal brain slices; parameters: species or system mice; conditions: 10 µM compound, 200 nM Aβ42
# [5] = molecular target: T36, PI3 Kinase (p110α/p85α)(m) (Mus musculus, UniProt P42337); assay: Kinome profiler screen; type: biochemical; conditions: at 20,000 nM inhibitor; kinase activity remaining
# T36 construct: purchased Millipore KinaseProfiler
Compound,activity at 20 µM (DAPK1),activity at 20 µM (Fms(Y969C)),activity at 20 µM (Met),activity at 20 µM (PIP4K2α),activity at 20 µM (ZAP-70),Dose Escalating Adverse Event Screen / Adverse Pharm Dose [1],activity at 20 µM [2],activity at 20 µM (CDK2/cyclinA),activity at 20 µM (PAK6),activity at 20 µM (Blk(m)),activity at 20 µM (WNK3),activity at 20 µM (Lyn(m)),activity at 20 µM (NEK7),activity at 20 µM (MAPK1),activity at 20 µM (PhKγ2),activity at 20 µM (Met(Y1248D)),activity at 20 µM [3],activity at 20 µM (Fes),activity at 20 µM (CaMKIIγ),activity at 20 µM (Abl (H396P)),further results
"CN(C)c1cc(-c2ccncc2)c(-c2ccc3ccccc3c2)nn1 [MW108, N, N-dimethyl-6-(naphthalen-2-yl)-5-(pyridin-4-yl)pyridazin-3-amine]",92%,100%,118%,96%,92%,≥ 200 mg/kg,101%,79%,99%,88%,91%,97%,108%,82%,98%,93%,101%,111%,99%,94%,Dose Escalating Adverse Event Screen / Adverse Pharm Dose ([1]; listed as MW01-11-108SRM): > 200 mg/kg; activity at 20 µM (Rsk2): 92%; activity at 20 µM (Syk): 88%; activity at 20 µM (PKCα): 92%; activity at 20 µM (Lck activated): 70%; activity at 20 µM (PKCβII): 87%; activity at 20 µM (NEK2): 96%; activity at 20 µM (SGK2): 92%; activity at 20 µM (DMPK): 108%; activity at 20 µM (HIPK2): 107%; activity at 20 µM (PDGFRα): 106%; activity at 20 µM (Plk1): 96%; activity at 20 µM (Met(M1268T)): 91%; activity at 20 µM (cKit(V654A)): 106%; activity at 20 µM (Rsk1): 93%; activity at 20 µM (Lyn): 100%; pIC50 (Flt4): 5.31; activity at 20 µM (Flt4): 11%; LTP deficit in Aβ42-treated slices [4]: ameliorated the LTP deficit; activity at 20 µM [5]: 101%
"CN(C)c1cc(-c2ccncc2)c(-c2cccc3ccccc23)nn1 [MW181, N,N-dimethyl-6-(naphthalen-1-yl)-5-(pyridin-4-yl)pyridazin-3-amine]",99%,91%,112%,97%,99%,≥ 200 mg/kg,100%,92%,101%,100%,89%,90%,102%,90%,93%,94%,100%,100%,100%,101%,Dose Escalating Adverse Event Screen / Adverse Pharm Dose ([1]; listed as MW01-10-181SRM): > 200 mg/kg; activity at 20 µM (Rsk2): 90%; activity at 20 µM (Syk): 105%; activity at 20 µM (PKCα): 86%; activity at 20 µM (Lck activated): 84%; activity at 20 µM (PKCβII): 112%; activity at 20 µM (NEK2): 94%; activity at 20 µM (SGK2): 102%; activity at 20 µM (DMPK): 116%; activity at 20 µM (HIPK2): 102%; activity at 20 µM (PDGFRα): 103%; activity at 20 µM (Plk1): 110%; activity at 20 µM (Met(M1268T)): 95%; activity at 20 µM (cKit(V654A)): 83%; activity at 20 µM (Rsk1): 98%; activity at 20 µM (Lyn): 93%; activity at 20 µM (Flt4): 98%; LTP deficit in Aβ42-treated slices [4]: ameliorated the LTP deficit; activity at 20 µM [5]: 102%
